This test concerns P. falciparum K1 (strain resistant to chloroquine and pyrimethamine), erythrocytic stages. The test can be described thus: Plasmodium falciparum in vitro assay, [3H] hypoxanthine incorporation. It is filed as cell-based. The settings on record: Plasmodium falciparum, K1, P. falciparum strain K1; [3H] hypoxanthine incorporation; read-out: IC50 (nM) on K1. In outline:
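Chloroquine/pyrimethamine-resistant K1 erythrocytic cultures (2.5% haematocrit, 0.3% parasitaemia, hypoxanthine-free RPMI with Albumax) exposed to seven doubling dilutions at 37 °C under low O2.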

Each structure is given as a SMILES string.

As usually defined, the IC50 is the point on the concentration scale where inhibition reaches its midpoint. Regarding `CC(=O)N1CCN(c2ccc(CN(C(=O)C=Cc3ccc(C(F)(F)F)cc3)[C@@H](Cc3ccccc3)C(=O)N(C)CCN(C)Cc3ccc(C)c(F)c3F)cc2)CC1` [Example 251, (S)-N-[4-(4-Acetyl-piperazin-1-yl)-benzyl]-N-[1-({2-[(2,3-difluoro-4-methyl-benzyl)-methyl-amino]-ethyl}-methyl-carbamoyl)-2-phenyl-ethyl]-3-(4-trifluoromethyl-phenyl)-acrylamide], the IC50 worked out at 53 nM.

`CC(=O)N1CCN(c2ccc(CN(C(=O)C=Cc3ccc(C(F)(F)F)cc3)[C@@H](Cc3ccccc3)C(=O)N(C)CCN(C)Cc3cnc[nH]3)cc2)CC1` [Example 252, (S)-N-[4-(4-Acetyl-piperazin-1-yl)-benzyl]-N-[1-({2-[(3H-imidazol-4-ylmethyl)-methyl-amino]-ethyl}-methyl-carbamoyl)-2-phenyl-ethyl]-3-(4-trifluoromethyl-phenyl)-acrylamide]: the IC50 turned out to be 80 nM.

As to `CC(=O)N1CCN(c2ccc(CN(C(=O)C=Cc3ccc(C(F)(F)F)cc3)[C@@H](Cc3ccccc3)C(=O)N(C)CCN(C)Cc3ccncc3)cc2)CC1` [Example 253, (S)-N-[4-(4-Acetyl-piperazin-1-yl)-benzyl]-N-(1-{methyl-[2-(methyl-pyridin-4-ylmethyl-amino)-ethyl]-carbamoyl}-2-phenyl-ethyl)-3-(4-trifluoromethyl-phenyl)-acrylamide], the IC50 was 19 nM.

For `CC(=O)N1CCN(c2ccc(CN(C(=O)C=Cc3ccc(C(F)(F)F)cc3)[C@@H](Cc3ccccc3)C(=O)N(C)CCN(C)Cc3ccccc3)cc2)CC1` [Example 254, (S)-N-[4-(4-Acetyl-piperazin-1-yl)-benzyl]-N-(1-{[2-(benzyl-methyl-amino)-ethyl]-methyl-carbamoyl}-2-phenyl-ethyl)-3-(4-trifluoromethyl-phenyl)-acrylamide], the half-maximal inhibitory concentration (IC50) turned out to be 76 nM.

Regarding `CN(CCN(C)C(=O)[C@H](Cc1ccccc1)N(Cc1ccc(N2CCOCC2)cc1)C(=O)C=Cc1ccc(C(F)(F)F)cc1)Cc1ccc(N(C)CCO)cc1` [Example 255, (S)-N-(1-{[2-({4-[(2-Hydroxy-ethyl)-methyl-amino]-benzyl}-methyl-amino)-ethyl]-methyl-carbamoyl}-2-phenyl-ethyl)-N-(4-morpholin-4-yl-benzyl)-3-(4-trifluoromethyl-phenyl)-acrylamide], the IC50 turned out to be 59 nM.

With `CN(CCN(C)C(=O)[C@H](Cc1ccccc1)N(Cc1ccc(N2CCOCC2)cc1)C(=O)C=Cc1ccc(C(F)(F)F)cc1)Cc1ccc(O)cc1` [Example 256, (S)-N-[1-({2-[(4-Hydroxy-benzyl)-methyl-amino]-ethyl}-methyl-carbamoyl)-2-phenyl-ethyl]-N-(4-morpholin-4-yl-benzyl)-3-(4-trifluoromethyl-phenyl)-acrylamide], the IC50 worked out at 39 nM.

As to `CCN(CC)c1ccc(CN(C)CCN(C)C(=O)[C@H](Cc2ccccc2)N(Cc2ccc(N3CCOCC3)cc2)C(=O)C=Cc2ccc(C(F)(F)F)cc2)cc1` [Example 257, (S)-N-[1-({2-[(4-Diethylamino-benzyl)-methyl-amino]-ethyl}-methyl-carbamoyl)-2-phenyl-ethyl]-N-(4-morpholin-4-yl-benzyl)-3-(4-trifluoromethyl-phenyl)-acrylamide], the IC50 worked out at 65 nM.

With `CN(CCN(C)C(=O)[C@H](Cc1ccccc1)N(Cc1ccc(N2CCOCC2)cc1)C(=O)C=Cc1ccc(C(F)(F)F)cc1)Cc1cccc(O)c1` [Example 258, (S)-N-[1-({2-[(3-Hydroxy-benzyl)-methyl-amino]-ethyl}-methyl-carbamoyl)-2-phenyl-ethyl]-N-(4-morpholin-4-yl-benzyl)-3-(4-trifluoromethyl-phenyl)-acrylamide], the IC50 amounted to 43 nM.

With `CN(CCN(C)C(=O)[C@H](Cc1ccccc1)N(Cc1ccc(N2CCOCC2)cc1)C(=O)C=Cc1ccc(C(F)(F)F)cc1)Cc1cccnc1` [Example 259, (S)-N-(1-{Methyl-[2-(methyl-pyridin-3-ylmethyl-amino)-ethyl]-carbamoyl}-2-phenyl-ethyl)-N-(4-morpholin-4-yl-benzyl)-3-(4-trifluoromethyl-phenyl)-acrylamide], the IC50 is 32 nM.
